The values below come from a melting point compilation (Tetko et al.; mined from patent text by program, amines drawn as free bases though some values may be those of a salt).

A value given as a limit tells only on which side of the number the result lay.

In turn, `CC(C)(C)C(=O)N1CCN(c2ccc(C(=O)CSc3ccnc4ccccc34)cc2)CC1` yielded a melting point of 174 to 176 °C.
For the compound `CC(=O)NC[C@H]1CN(c2ccc(-n3nccc3-c3cccnc3)c(F)c2)C(=O)O1`, the melting point lay within 83.7 to 85.9 °C.
The result for `CCOC(=O)C1=C(C)NC(COC(N)=O)=C(C(=O)OCC)C1c1ccccc1[N+](=O)[O-]` (configuration not stated) reads 128 to 132 °C.
Next, `COc1cc2cn(CC3CCCCO3)nc2cc1OC` (configuration not stated): 90 to 96 °C.
The result for `CCN(CC)Cc1c(Cl)ccc2cc(Cl)cnc12` reads 54 °C; that for `CC(=O)c1c(F)c(F)c(OCCOc2ccc3ccccc3c2)c(F)c1F`, 114 to 115 °C; that for `CCOC(=O)C1CC(=O)c2nc(C)n(C)c2C1` (configuration not stated), 148 to 150 °C.
On to `Cc1ccc(S(=O)(=O)OCCc2cccc3c(S(=O)(=O)c4ccccc4)c[nH]c23)cc1`, for which the melting point lay in the range of 142 to 145 °C.
The result for `CCOC(=O)c1cc2ccc3c(c4ccccc4n3CC)c2n1C` reads 116 °C; that for `CCOc1nc(C(=O)O)ccc1C#N`, 185 to 190 °C.
For `CC(=O)Oc1ccccc1C(=O)C1c2ccccc2C(=O)N1CCO[N+](=O)[O-]` (configuration not stated), the melting point was 81 to 83 °C.
`CC(=O)c1cc(NC(=O)CCCC(=O)Nc2cc(C(C)=O)cc(C(C)=O)c2)cc(C(C)=O)c1`: the melting point is 200 to 203 °C.
In the case of `O=C(O)C(=O)Nc1cc(NC(=O)C(=O)O)cc(C(=O)O)c1`, the melting point is more than 320 °C.
The compound `COC(=O)N(C)CCc1ccc(N)c(CS(=O)(=O)c2ccccc2)c1` yielded a melting point of 95 to 96 °C.
Next, `CC(=O)CCOc1c(-c2ccc(S(C)(=O)=O)cc2)cnn(-c2ccc(F)c(F)c2)c1=O`: 134 to 135 °C.
The result for `CCc1cc(-c2ccc(F)cc2)c(O)cc1OCCCCCC(c1ccc(OCC(=O)O)cc1)c1nnn[nH]1` (configuration not stated) reads 102 to 104 °C; that for `N#Cc1ccc2c(c1)C(=O)NC(C(Cl)(Cl)Cl)O2` (configuration not stated), 212 to 214 °C; that for `Cc1nc2c(N)nc3ccccc3c2n1CCOCCS(C)(=O)=O`, 214 to 217 °C.
Next, `N#Cc1cnc2c(sc3ccc([N+](=O)[O-])cc32)c1O`: more than 305 °C; `CN(C)Cc1ccc(C(=O)Nc2nc(-c3ccco3)c(C(=O)C3CCOCC3)s2)cc1`: 109 to 112 °C; `OC(c1ccc(Cl)cc1)c1cccc(Br)c1` (configuration not stated): 67 to 68 °C.
In the case of `OC1(c2ccc(F)cc2)Cc2ccccc2C2=NCCN21` (configuration not stated), the melting point was 150 to 151 °C.
The result for `Cc1nc(CN2C(=O)C3(COc4cc5c(cc43)OCO5)c3ccccc32)c(C(F)(F)F)o1` (configuration not stated) reads 136 to 137 °C.
Next, `Cc1nc(N2CCN(Cc3cccc(C(=O)O)c3)C2=O)sc1C(=O)NCc1ccccc1`: 120 to 123 °C.
The result for `CCCCCCCSC[C@H](N[C@@H](C)C(=O)N1CCC[C@H]1C(=O)O)C(=O)O` reads 75 to 83 °C.
In turn, `N#CCC(=O)Nc1cc(Cl)c(Cl)cc1[N+](=O)[O-]` displayed a melting point of 156 to 158 °C.
The result for `O=C(Nc1ccc(N2CCCCC2)cc1)N(C[C@H]1CC[C@H](CN(C(=O)Nc2ccc(N3CCCCC3)cc2)C2CCCCC2)CC1)C1CCCCC1` reads 174 to 178 °C.
Next, `CC1=Nc2ccccc2N(Cc2ccccc2)C(=O)C1C/C=C/c1ccccc1` (configuration not stated): 152 to 154 °C; `COC(=O)c1nc2cc(Cl)ccc2c(O)c1C(=O)OC`: 232 to 233 °C; `O=C(O)c1cc(-c2ccc(C(F)(F)F)cc2)cnc1O`: 305 to 315 °C.
For the compound `CCc1nc2c(N)nc3ccccc3c2n1CCOCCNC(=O)Nc1ccccc1`, the melting point lay in the range of 141 to 144 °C.
The compound `COC(=O)c1ccc(CN2CCN(C(=O)c3ccc(Cl)cc3)CC2)cc1` gave a melting point of 134 to 135 °C.
Compound `CCOC(=O)CCc1ccc(NC(=O)c2csc(NC(=O)NCc3ccccc3)n2)cc1` registered a melting point of 194 °C.
Next, `CSc1nccc(C(C#N)C(=O)c2ccccc2)n1` (configuration not stated): 163 to 164 °C; `O=[N+]([O-])c1cc2c(Nc3ccc(F)c(Cl)c3)ncnc2cc1O[C@@H]1CCOC1`: 244 °C.
In the case of `CC(C)n1nc(-c2c(-c3ccccc3)nc(N)[nH]c2=O)ccc1=O`, the melting point lay within 291 to 295 °C.
The result for `O=C(O)Cc1ccc2ccn(C(=O)c3ccccc3)c2c1` reads 113 to 115 °C.
`O=C(O)C1C(=O)Nc2ccccc2SC1c1ccc2c(c1)OCO2` (mixture of isomers) registered a melting point of 110 °C.
Next, `CCCc1cnc2c(c1)C(=O)OC2=O`: 42 to 44 °C; `O=C1COCc2ccccc2N1`: 160 to 165 °C.
The result for `CC1=C(C(=O)OC(C)C)C(c2cccc([N+](=O)[O-])c2)N(C(N)=O)C(=O)N1` (configuration not stated) reads 160 to 161 °C.
The result for `CCOC(=O)c1nc(C)c(SC)c(O)n1` reads 139 °C; that for `Cc1ccc(-c2cnc(C#Cc3ccc(C)s3)s2)cc1`, 101 to 103 °C.
For the compound `COC(=O)c1ccc(-c2csc(-c3ccc4c(c3)C(C)(C)CCC4(C)C)c2)cc1`, the melting point lay within 108 to 110 °C.
The result for `CC12CC(C(F)F)C3C4CCC(=O)C=C4CCC3C1CCC2=O` (configuration not stated) reads 149 to 151 °C; that for `Cc1nn(C)c(OC(=O)CCl)c1C(=O)c1ccc(Cl)cc1Cl`, 120 to 122 °C; that for `CN(CCCCCCCNC(=O)NCCCOc1cccc(CN2CCCCC2)c1)CCN(Cc1ccc(F)cc1)c1ccccn1`, 112 °C.
Next, `O=C(OC(=O)c1cccnc1)c1cccnc1`: 162 to 164 °C.
In turn, `CCOC(=O)CC=Cc1ccc2ccccc2c1O` registered a melting point of 83 to 84 °C.
Next, `CCCCN(CCCC)c1ccc(C=Cc2ccc(C=CC3=C(C#N)C(=C(C#N)C#N)OC3(c3ccccc3)C(F)(F)F)s2)c(OCc2ccccc2)c1` (configuration not stated): 196 to 197 °C.
Regarding `FC(F)(F)c1ccc(-c2ccc(CCl)cn2)cc1`, the melting point turned out to be 73 °C.
The result for `CCC(C)(C)OC(=O)NC(C)(Cc1c[nH]c2ccccc12)C(=O)NCCc1ccccn1` (configuration not stated) reads 151 to 152 °C; that for `COc1cccc2c1CCC(CN1C(=O)c3ccccc3C1=O)C2` (configuration not stated), 143 to 144 °C.
Next, `CC(O)C1CCC(CNC(=O)OC(C)(C)C)CC1` (configuration not stated): 75 to 76 °C; `COC(=O)C(C)[C@H]1CC[C@H]2[C@@H]3CCC4=CC(=O)CC[C@]4(C)[C@H]3CC[C@]12C` (some centres not stated): 175 to 177 °C; `CC(=O)Nc1nc2c(c(=O)[nH]1)CCC(O)N2C(C)=O` (configuration not stated): 202 to 205 °C.
Next, `CCOc1ccc(C(=O)OC)cc1C(=N)N`: 133 to 135 °C; `CC1(COc2ccc([N+](=O)[O-])cc2)CC(O)c2cc(O)c(C(C)(C)C)cc2O1` (configuration not stated): 194 to 201 °C.
The compound `CCCOc1ccc2[nH]c3c([N+](=O)[O-])ccc(Cl)c3c(=O)c2c1` showed a melting point of 174 to 175 °C.
Next, `CN1Cc2c(CCl)ncn2-c2ccccc2C1=O`: 277 to 280 °C; `Cc1cccc(NC(=O)NCC(=O)N(c2ccccc2)C(C)C(=O)N(C)c2ccccc2)c1` (racemic): 214 °C; `CCCCCCCCCCc1ccc2cc(/C=C/c3cc4ccc(CCCCCCCCCC)cc4cc3SC)c(SC)cc2c1`: 117 to 118 °C.

As a reminder, the melting point is the temperature of the solid-liquid transition.
